The target of test [1] is T1, human recombinant his-tagged HSP90α (Homo sapiens, UniProt P07900).
T1 construct: purchased Prospec Technogene #HSP90
Briefly: Hsp90 HTRF assay (competition with biotinylated GM for binding to HSP90). The note with it: bio-GM displacement, 20 h incubation at room temperature, read-out: Inhibitor Activity vs Hsp90. The text has this: An HTRF (homogeneous time resolved fluorescence assay) assay was used to measure the interaction of the compounds with HSP90.
The assay measures binding of biotinylated GM (bio-GM; Biomol, #EI-341, lot: A9199a) to human recombinant his-tagged HSP90α (HSP90; Prospec Technogene, #HSP90, lot: 260HSP9001). A signal is generated by fluorescence resonance energy transfer from an Europium-cryptate labeled anti-his antibody (anti-6HIS-Cryptate; Cisbio International, #61HISKLA, lot: 33V) via the HSP90-GM-biotin complex to a fluorescence acceptor (allophycocyanin) linked to streptavidin (SA-XL; Cisbio International, #610SAXLB, lot: 089).
Unlabeled GM or compounds compete with the bio-GM for binding to HSP90 resulting in reduced fluorescence energy transfer/assay signal.
For the assay a preformed (1 h incubation) complex of HSP90 with the anti-his-K is added to the compound solution in a 384 well microplate (Corning, #3710) and incubated for 15 min. A preformed (1 h incubation) complex of bio-GM with the SA-XL was added to the wells and incubated for 20 h. All incubations were performed at room temperature. The final assay volume was 50 μl/well. The final concentrations in the assay were: 50 mM Hepes pH 7.3, 50 mM NaCl, 100 mM KF, 1 mM EDTA, 1 mM DTT, 0.1% Triton-X-100, 1 nM anti-his-K, 40 nM HSP90, 40 nM SA-XL, 40 nM bio-GM. Test compounds were dissolved in DMSO, prediluted in assay buffer and tested at a final concentration between 5000 nM and 0.3 nM. The resulting DMSO concentration was 0.5% and included in all controls. High controls were without test compounds, low controls without test compounds, without HSP90 and without bio-GM. As a reference inhibitor unlabeled GM was used in the same concentrations as the test compounds.
Inhibition was calculated compared to the assay controls using an Excel spreadsheet (Microsoft). IC50 values were calculated by non-linear least squares fitting to the standard dose-response model using GraphPad Prism (GraphPad Software Inc).

The test system of test [2] is HCT 116 cell line. Briefly: Cell inhibition assay (WST-1 cell proliferation, 120 hrs). The test is classed as cell-based. The note with it: Homo sapiens, HCT-116, 120 hrs, read-out: Inhibitor Activity vs HCT 116 cell line. The procedure: Cells were seeded in 96W tissue culture plates (1 well=30 mm^2) at a density of 500 cells per well in 50 μl of the appropriate culture medium (see below). 24 hrs later 50 μl of the compound prepared in the same medium was added as 4 fold dilutions to give final concentrations in the range 0.15 nM-2500 nM (n=6 for each concentration). The plates were then incubated at 37° C., 5% CO2 for 120 hrs. Cell proliferation was assessed using WST-1 (a metabolic indicator dye, Roche Cat no. 1 644 807) according to the manufacturers instructions. The results were calculated as percentage of vehicle response and IC50 values represent the concentration of compound that inhibited the vehicle response by 50%. HCT-116 Culture Medium—Dulbeccos MEM (Sigma D6546) plus 10% heat inactivated fetal calf serum (Hyclone SH30071 Thermo Fischer Scientific) containing 2 mM Glutamine (Sigma cat no G-7513) and 50 U/ml Penicillin and Streptomycin Sulphate (Sigma Cat no P-0781).
Data were expressed as a percentage inhibition of the control, measured in the absence of inhibitor, as follows: % inhibition=100−((S^i/S^o)×100) where S^i is the signal in the presence of inhibitor and S0 is the signal in the presence of DMSO.
IC50 values were determined by non-linear regression analysis, after fitting the results of eight data points to the equation for sigmoidal dose response with variable slope (% activity against log concentration of compound), using Graphpad Prism® software.
In general terms: Tetrazolium dyes change colour on reduction, which living cells bring about.

Structures are written as SMILES.

Consider `Nc1ncnc2c1nc(Sc1cc3c(cc1I)OCO3)n2CCC[C@H](N)C(=O)OC1CCCC1` [Example 1, (S)-Cyclopentyl 2-amino-5-(6-amino-8-(6-iodobenzo[d][1,3]dioxol-5-ylthio)-9H-purin-9-yl)pentanoate], for which the IC50 in test [1] and in test [2] was below 1000 nM in each case.
With `Nc1ncnc2c1nc(Sc1cc3c(cc1I)OCO3)n2CC[C@H](N)C(=O)OC1CCCC1` [Example 2, (S)-cyclopentyl 2-amino-4-(6-amino-8-(6-iodobenzo[d][1,3]dioxol-5-ylthio)-9H-purin-9-yl)butanoate], the IC50 in test [1] and in test [2] was below 1000 nM throughout.
On to `Nc1ncnc2c1nc(Sc1cc3c(cc1I)OCO3)n2CCC[C@@H](N)C(=O)OC1CCCC1` [Example 3, (R)-Cyclopentyl 2-amino-5-(6-amino-8-(6-iodobenzo[d][1,3]dioxol-5-ylthio)-9H-purin-9-yl)pentanoate], for which the IC50 in test [1] and in test [2] was below 1000 nM each time.
On to `Nc1ncnc2c1nc(Sc1cc3c(cc1I)OCO3)n2CC[C@@H](N)C(=O)OC1CCCC1` [Example 4, (R)-cyclopentyl 2-amino-4-(6-amino-8-(6-iodobenzo[d][1,3]dioxol-5-ylthio)-9H-purin-9-yl)butanoate], for which the IC50 in test [1] and in test [2] was below 1000 nM throughout.
In the case of `CC(C)(C)OC(=O)[C@@H](N)CCCn1c(Sc2cc3c(cc2I)OCO3)nc2c(N)ncnc21` [Example 5, (S)-tert-Butyl 2-amino-5-(6-amino-8-(6-iodobenzo[d][1,3]dioxol-5-ylthio)-9H-purin-9-yl)pentanoate], the IC50 is below 1000 nM in test [1] and 1000 to 10000 nM in test [2].
As for `Nc1ncnc2c1nc(Sc1cc3c(cc1I)OCO3)n2C[C@H](N)C(=O)OC1CCCC1` [Example 6, Cyclopentyl 3-{6-amino-8-[(6-iodo-1,3-benzodioxol-5-yl)thio]-9H-purin-9-yl}-L-alaninate], the IC50 in test [1] was below 1000 nM.
Turning to `Nc1ncnc2c1nc(Sc1ccc3c(c1)OCO3)n2-c1ccc(C[C@H](N)C(=O)OC2CCCC2)cc1` [Example 7, Cyclopentyl 4-{6-amino-8-[(1,3-benzodioxol-5-yl)thio]-9H-purin-9-yl}-L-phenylalaninate], the IC50 in test [1] was in the range of 1000 to 10000 nM.
`Nc1ncnc2c1nc(Sc1cc3c(cc1Br)OCO3)n2-c1ccc(C[C@H](N)C(=O)OC2CCCC2)cc1` [Example 8, Cyclopentyl 4-{6-amino-8-[(6-bromo-1,3-benzodioxol-5-yl)thio]-9H-purin-9-yl}-L-phenylalaninate]: the IC50 in test [1] lay within 1000 to 10000 nM.
On the same count and under the same terms, with `Nc1ncnc2c1nc(Sc1cc3c(cc1I)OCO3)n2CCC[C@H](N)C(=O)O` [Example 9, (S)-2-amino-5-(6-amino-8-(6-iodobenzo[d][1,3]dioxol-5-ylthio)-9H-purin-9-yl)pentanoic acid] the figure was below 1000 nM.
Turning to `Nc1ncnc2c1nc(Sc1cc3c(cc1I)OCO3)n2CC[C@H](N)C(=O)O` [Example 10, (S)-2-amino-4-(6-amino-8-(6-iodobenzo[d][1,3]dioxol-5-ylthio)-9H-purin-9-yl)butanoic acid], the IC50 in test [1] was below 1000 nM.
`Nc1ncnc2c1nc(Sc1ccc3c(c1)OCO3)n2-c1ccc(C[C@H](N)C(=O)O)cc1` [Example 13, 4-{6-amino-8-[(1,3-benzodioxol-5-yl)thio]-9H-purin-9-yl}-L-phenylalanine]: the IC50 in test [1] was in the range of 1000 to 10000 nM.
Same read-out and setting: with `Nc1ncnc2c1nc(Sc1cc3c(cc1Br)OCO3)n2-c1ccc(C[C@H](N)C(=O)O)cc1` [Example 14, 4-{6-amino-8-[(6-bromo-1,3-benzodioxol-5-yl)thio]-9H-purin-9-yl}-L-phenyl alanine] the figure was below 1000 nM.

The values are drawn from patent US8217050B2, “Adenine derivative as inhibitors of HSP90 for the treatment of cancer” (Chroma Therapeutics Limited, priority 2006, dated 2012).
